Measured values published in patent US5464848A, “1,2,4-oxadiazolyl-phenoxyalkylisoxazoles and their use as antiviral agents” (Sterling Winthrop Inc., priority 1993, dated 1995).
Converted amounts (≈) assume the structure as drawn.

Key:
[1] = system: human rhinovirus serotypes, panel B; experiment: MIC50/MIC80 over panel B of 10 human rhinovirus serotypes (HeLa cell CPE); type: cell-based; conditions: for MIC80: minimum concentration required to inhibit 80% of the tested serotypes
Method: (§1) They are useful in inhibiting virus replication in vitro and are primarily active against picornaviruses, including enteroviruses, echovirus and coxsackie virus, especially rhinoviruses. […] The test procedure used was as follows: The MIC values were determined by an automated tissue culture infectious dose 50% (TCID-50) assay. HeLa cells in monoloyers in 96-well cluster plates were infected with a dilution of virus which had been shown empirically to produce 80% to 100% cytopathic effect (CPE) in 3 days in the absence of drug. The compound to be tested was serially diluted through 10, 2-fold cycles and added to the infected cells. After a 3 day incubation at 33° C. and 2.5% carbon dioxide, the cells were fixed with a 5% solution of glutaraldehyde followed by staining with a 0.25% solution of crystal violet in water. The plates were then rinsed, dried, and the amount of stain remaining in the well (a measure of intact cells) was quantitated with an optical density reader. The MIC was determined to be the concentration of compound which protected 50% of the cells from virus-induced CPE relative to an untreated virus control.
(§2) In the above test procedures, representative compounds of formula I were tested against some the serotypes from either a panel of fifteen human rhinovirus (HRV) serotypes, (noted in the table as panel T) namely, HRV-2, -14, -1A, -1B, -6, -21, -22, -15, -25, -30, -50, -67, -89, -86 and -41 or against some of the serotypes from a panel of 10 human rhinovirus serotypes namely HRV-3, -4, -5, -9, -16, -18, -38, -66, -75 and -61, (noted in the table as panel B) and the MIC value, expressed in micrograms per milliliter ([…]), for each rhinovirus serotype was determined for each virus, example 1e is given as an example of the data. Then MIC50 and MIC80 values, which are the minimum concentrations of the compound required to inhibit 50% and 80%, respectively, of the tested serotypes were determined.
(§3) The following Table gives the test results for representative compounds of the invention. The panel of viruses used in the test appears before the MIC80 and MIC50 figure and the number of serotypes which the compound is tested against (N) is indicated after the MIC80 and MIC50 figure.

[2] = system: human rhinovirus (HRV) serotypes, panel T; experiment: MIC50/MIC80 over panel T of fifteen human rhinovirus serotypes (HeLa cell CPE); type: cell-based; conditions: for MIC50: Human rhinovirus sp., 72 h, minimum concentration required to inhibit 50% of the tested serotypes; for MIC80: minimum concentration required to inhibit 80% of the tested serotypes
Method: as §1, §2, §3

| Molecule | MIC50 ([1]; Human rhinovirus sp., 72 h) [mg/L] | MIC80 ([1]; panel B) [mg/L] | MIC50 [2] [mg/L] | MIC80 [2] [mg/L] | MIC50 ([1]; panel B, minimum concentration required to inhibit 50% of the tested serotypes) [mg/L] |
| --- | --- | --- | --- | --- | --- |
| Cc1cc(CCCOc2c(F)cc(-c3noc(C(F)(F)F)n3)cc2I)on1 [Example 60e, 5-{3-[2-Fluoro-6-iodo-4-(5-trifluoromethyl-1,2,4-oxadiazol-3-yl)phenoxy]propyl}-3-methylisoxazole] | 99 (≈ 199 µM) | 0.4145 (≈ 0.834 µM) | – | – | – |
| Cc1cc(CCCOc2c(C)cc(-c3noc(C(F)(F)Cl)n3)cc2C)on1 [Example 54a, 5-{3-[2,6-Dimethyl-4-(5-difluorochloromehyl-1,2,4-oxadiazol-3-yl)phenoxy]-propyl}-3-methylisoxazole] | 49.6 (≈ 125 µM) | 0.016 (≈ 0.0402 µM) | – | – | – |
| Cc1cc(CCCOc2c(C)cc(-c3noc(C(F)(F)F)n3)cc2F)on1 [Example 60h, 5-{3-[2-Fluoro-6-methyl-4-(5-trifluoromethyl-1,2,4-oxadiazol-3-yl)phenoxy]propyl}-3-methylisoxazole] | 0.328 (≈ 0.851 µM) | 0.0315 (≈ 0.0818 µM) | – | – | – |
| Cc1cc(CCCOc2c(C)cc(-c3noc(CF)n3)cc2C)on1 [Example 6, 5-{3-[2,6-Dimethyl-4-(5-fluoromethyl-1,2,4-oxadiazol-3-yl)phenoxy]propyl}-3-methylisoxazole] | – | – | 0.073 (≈ 0.211 µM) | 0.046 (≈ 0.133 µM) | – |
| 5-{3-[2,6-Dimethyl-4-(5-difluoromethyl-1,2,4-oxadiazol-3-yl)phenoxy]-propyl}-3-methylisoxazole [Example 49g] | – | 49.859 | – | – | 99 |
| CCOc1nc(-c2cc(C)c(OCCCc3cc(C)no3)c(C)c2)no1 [Example 17, 5-{3-[2,6-Dimethyl-4-(5-ethoxy-1,2,4-oxadiazol-3-yl)phenoxy]propyl}-3-methylisoxazole] | – | – | 0.116 (≈ 0.325 µM) | 0.055 (≈ 0.154 µM) | – |
| CC(=O)OCc1nc(-c2cc(C)c(OCCCc3cc(C)no3)c(C)c2)no1 [Example 9, 5-{3-[2,6-Dimethyl-4-(5-methylcarbonyloxy-methyl-1,2,4-oxadiazol-3-yl)phenoxy]propyl}-3-methylisoxazole] | – | – | 0.279 (≈ 0.724 µM) | 0.141 (≈ 0.366 µM) | – |
| Cc1cc(-c2noc(C3CC3)n2)cc(C)c1OCCCc1cc(O)no1 [Example 36d, 5-{3-[4-(5-cyclopropyl-1,2,4-oxadiazol-3-yl)-2,6-dimethylphenoxy]propyl}-3-hydroxyisoxazole] | – | – | 1.32 (≈ 3.72 µM) | 0.371 (≈ 1.04 µM) | – |
| Cc1cc(CCCOc2c(C)cc(-c3noc(C(Cl)Cl)n3)cc2C)on1 [Example 13, 5-{3-[4-(5-Dichloromethyl-1,2,4-oxadiazol-3-yl)-2,6-dimethyl-phenoxy]propyl}-3-methylisoxazole] | – | – | 0.266 (≈ 0.671 µM) | 0.145 (≈ 0.366 µM) | – |
| Cc1cc(-c2noc(C3CC3)n2)cc(C)c1OCCCc1cc(C2CC2)no1 [Example 27] | – | – | 0.142 (≈ 0.374 µM) | 0.087 (≈ 0.229 µM) | – |
| Cc1cc(CCCOc2c(C)cc(-c3noc(CI)n3)cc2C)on1 [Example 41, 5-{3-[2,6-Dimethyl-4-(5-(iodomethyl)-1,2,4-oxadiazol-3-yl) -phenoxy]propyl}-3-methylisoxazole] | – | – | 99 (≈ 218 µM) | 99 (≈ 218 µM) | – |
| Cc1cc(-c2noc(C(F)(F)F)n2)cc(C)c1OCCCc1cc(CO)no1 [Example 34d, 5-{3-[2,6-Dimethyl-4-(5-trifluoromethyl-1,2,4-oxadiazol-3-yl)phenoxy]propyl}-3-(hydroxymethyl) isoxazole] | – | – | 0.07 (≈ 0.176 µM) | 0.042 (≈ 0.106 µM) | – |
| CCOC(=O)c1cc(CCCOc2c(C)cc(-c3noc(C(F)(F)F)n3)cc2C)on1 [Example 56d, 5-{3-[2,6-Dimethyl-4-(5-trifluoromethyl-1,2,4-oxadiazol-3-yl)phenoxy]propyl}-3-(ethoxycarbonyl)isoxazole] | – | – | 1.47 (≈ 3.33 µM) | 0.634 (≈ 1.44 µM) | – |
| Cc1cc(CCCCCOc2c(C)cc(-c3noc(C(F)(F)F)n3)cc2C)on1 [Example 30c, 5-{5-[2,6-Dimethyl-4-(5-trifluoromethyl-1,2,4-oxadiazol-3-yl)-phenoxy]pentyl}-3-methylisoxazole] | – | – | 0.694 (≈ 1.7 µM) | 0.225 (≈ 0.55 µM) | – |
| CSc1nc(-c2cc(C)c(OCCCc3cc(C)no3)c(C)c2)no1 [Example 58d, 5-{3-[2,6-dimethyl-4-(5-methylthio-1,2,4-oxadiazol-3-yl)phenoxy]-propyl}-3-methylisoxazole] | – | – | 99 (≈ 275 µM) | 99 (≈ 275 µM) | – |
| CCc1cc(CCCOc2c(C)cc(-c3noc(C(F)(F)F)n3)cc2C)on1 [Example 28c, 5-{3-[2,6-Dimethyl-4-(5-trifluoromethyl-1,2,4-oxadiazol-3-yl)phenoxy]propyl}-3-ethylisoxazole] | – | – | 0.278 (≈ 0.703 µM) | 0.119 (≈ 0.301 µM) | – |
| Cc1cc(CCCOc2c(C)cc(-c3noc(C(F)(F)F)n3)cc2Cl)on1 [Example 63d, 5-{3-[4-(5-Trifluoromethyl-1,2,4-oxadiazol-3-yl)2-chloro-6-methylphenoxy]propyl}-3-methylisoxazole] | 0.304 (≈ 0.757 µM) | 0.13 (≈ 0.324 µM) | – | – | – |
| Cc1cc(CCCOc2ccc(-c3noc(C(F)(F)F)n3)cc2)on1 [Example 32c, 3-Methyl-5-{3-[4-(5-trifluoromethyl-1,2,4-oxadiazol-3-yl) -phenoxy]propyl}isoxazole] | – | – | 99 (≈ 280 µM) | 2.86 (≈ 8.1 µM) | – |
| Cc1cc(-c2noc(C(F)(F)F)n2)cc(C)c1OCCCc1onc(C)c1Br [Example 57] | 99 (≈ 215 µM) | 99 (≈ 215 µM) | – | – | – |
| Cc1cc(CCCOc2c(C)cc(-c3noc(N(C)C)n3)cc2C)on1 [Example 19, 5-{3-[2,6-Dimethyl-4-(5-dimethylamino-1,2,4-oxadiazol-3-yl)-phenoxy]propyl}-3-methylisoxazole] | – | – | 0.285 (≈ 0.8 µM) | 0.085 (≈ 0.238 µM) | – |
| Cc1cc(CCCCCOc2c(Cl)cc(-c3noc(C(F)(F)F)n3)cc2Cl)on1 [Example 31c, 5-{5-[2,6-Dichloro-4-(5-trifluoromethyl-1,2,4-oxadiazol-3-yl)-phenoxy]pentyl}-3-methylisoxazole] | – | – | 99 (≈ 220 µM) | 0.533 (≈ 1.18 µM) | – |
| COCc1cc(CCCOc2c(C)cc(-c3noc(C4CC4)n3)cc2C)on1 [Example 26] | – | – | 0.183 (≈ 0.477 µM) | 0.038 (≈ 0.0991 µM) | – |
| Cc1cc(CCCOc2c(C)cc(-c3noc(C(F)F)n3)cc2C)on1 [Example 14, 5-{3-[4-(5-Difluoromethyl-1,2,4-oxadiazol-3-yl)-2,6-dimethyl-phenoxy]propyl}-3-methylisoxazole] | – | – | 0.054 (≈ 0.149 µM) | 0.022 (≈ 0.0605 µM) | – |
| Cc1cc(CCCOc2c(C)cc(-c3nc(N)no3)cc2C)on1 [Example 47] | – | – | 5.14 (≈ 15.7 µM) | 0.057 (≈ 0.174 µM) | – |
